Source: a melting point compilation (Tetko et al.; mined from patent text by program, amines drawn as free bases though some values may be those of a salt)

Row | Compound | melting point
1 | CCCOc1ccc(S(=O)(=O)N2CCN(C)CC2)cc1-c1nc2cc(N)c([N+](=O)[O-])cc2c(=O)[nH]1 | 270 to 271 °C
2 | CC(=O)c1cc(N2CCCC2)ccc1NC(=O)c1ccccc1OCc1ccccc1 | 160 to 161 °C
3 | CCN(CC)CCCCNc1ncc2c(n1)N(C1CC1)C(=O)N(c1c(F)c(OC)cc(OC)c1F)C2 | 139 to 141 °C
4 | O=C(NCCc1ccccc1)c1ccc(S(=O)(=O)Nc2ccccc2C(=O)O)cc1 | 242 to 244 °C
5 | COc1ccc2ccc3nc(C(=O)Nc4nnn[nH]4)cn3c2c1 | 298 to 301 °C
6 | CC(=O)C1C(=O)CC(CCS(=O)(=O)c2ccc(C(F)(F)F)cc2)CC1=O (stereo not drawn) | 136 °C
7 | CC(=O)C(=O)Nc1ccc(C#N)c(C(F)(F)F)c1 | 147 to 148 °C
8 | CN(C)C=C(C#N)C(=O)Nc1c(F)cccc1F | 180 to 181 °C
9 | O=C(Cn1nc(C(F)(F)F)cc1Cl)N1CCC(c2nc(C3=NOC(c4ccccc4)C3)cs2)CC1 (stereo not drawn) | 128 to 131 °C
10 | O=C1CCCCCC1C(C[N+](=O)[O-])c1ccc(OCc2ccccc2)cc1 (racemic) | 120 to 121 °C
11 | O=C(CCc1oc(-n2cnc3ccccc32)nc1-c1ccc(Cl)cc1)N1CCSC1 | 125 to 126 °C
12 | COc1cccc2c1CCCC2(O)CN (stereo not drawn) | 129 to 130 °C
13 | O=C(O)CCCc1cnoc1-c1ccccc1 | 67 to 68 °C
14 | NCC1COc2cc(F)cc(-c3ccccc3Cl)c2N1 (stereo not drawn) | 86 °C
15 | Cn1cnc2nc(-c3ccc(-c4ccccc4)cc3)nn2c1=S | 297 to 299 °C
16 | COc1ccccc1NC(=O)Nc1nc(NC(C)C)nc(N(CCC(=O)O)Cc2ccc(Cl)c(Cl)c2)n1 | 95 to 101 °C
17 | CC(=O)Nc1ccc(C#Cc2ccc(OC3CN4CCC3CC4)nn2)cc1 (stereo not drawn) | 170 to 175 °C
18 | COc1ccc(NCCOc2ccc3ccccc3c2)cc1 | 92 °C
19 | CCCc1c2c(nn1-c1ccccc1)c(=O)[nH]c1ccccc12 | > 300 °C
20 | COc1c(C)cc(C(=O)CCC(=O)O)cc1C | 108 °C
21 | CCOC(=O)c1c(-c2ccc(F)cc2)c(-c2ccc(F)cc2)c(C=O)n1C(C)C | 92 to 94 °C
22 | COc1cc(C#N)cc2c1OC(C)(C)C2 | 73 to 74 °C
23 | CCOC(=O)c1cnc2nn(CC)cc2c1O | 197 to 198 °C
24 | N#CCNC(=O)COc1ccc(Cl)cc1Cl | 107 to 108 °C
25 | COC(=O)CNC(=O)COc1ccc(C(C)=O)cc1 | 120 to 121 °C
26 | CSCc1nn(CCC#N)c(O)c1C | 98 °C

Row | Compound | melting point
27 | Cc1ccc(OC2CCN(C(=O)C(=O)Nc3ccc4[nH]c(=O)oc4c3)CC2)cc1 | 203 °C
28 | O=c1c(CCC(O)c2ccncc2)cc2cccnc2n1-c1cccc([N+](=O)[O-])c1 (stereo not drawn) | 235 to 236 °C
29 | O=C(O)/C=C1/c2ccccc2N(C(=O)c2ccc(NC(=O)c3ccccc3-c3ccccc3)cc2)CCC1(F)F | 224 to 226 °C
30 | COc1ccc(CC#N)cc1OC1CCCC1 | 32 to 34 °C
31 | CCOc1cc2c(c(Cl)c1O)Sc1ccccc1N2 | 186 to 189 °C
32 | O=C1C2C=CCCC2C(=O)N1CCO (stereo not drawn) | 48 to 51 °C
33 | CSC(SC)=C1C(=O)CCCC1=O | 66 to 67 °C
34 | Cc1cccc(-c2ccccc2)c1C(=O)c1sc(Nc2ccc(N3CCOCC3)cc2)nc1N | 125 to 135 °C
35 | O=C(CSc1ncccn1)C12CC3CC(CC(C3)C1)C2 | 100 to 101 °C
36 | COc1cc2cc(C(=O)Nc3cc(NC(=O)OCc4ccccc4)c4ccccc4c3CCCl)[nH]c2c(OC)c1OC | 58 to 62 °C
37 | Cn1c(C(F)(F)F)ccc(-c2cc(N)c(Cl)cc2F)c1=O | 155 to 157 °C
38 | COc1ccc2cc(-c3ccc(Br)cc3)[nH]c(=O)c2c1 | > 250 °C
39 | CNC(=O)C(SC)c1cccc(C(=O)c2ccccc2)c1N (stereo not drawn) | 149 to 150 °C
40 | CC(C)(C)N[C@@H]1CCc2c(ccc(OCc3ccccc3)c2C#N)[C@H]1O (relative stereo) | 120 to 122 °C
41 | Cc1ccc2c([N+](=O)[O-])cc([N+](=O)[O-])c(O)c2n1 | 295 to 300 °C
42 | COc1ccc2c(C(=O)O)cccc2c1 | 180 °C
43 | OCCOCC(O)c1cccc2ccccc12 (stereo not drawn) | 91 to 92 °C
44 | CCOC(=O)c1c(CCn2ccnc2)nc2cc(OC)c(OC)cc2c1-c1ccc(OC)c(OC)c1 | 173 to 174 °C
45 | CN1C(=O)C(C(C)(C)C)NNC1=S (stereo not drawn) | 214 °C
46 | CC1(NC(=O)C(F)(F)F)CN(c2cc3c(cc2F)c(=O)c(C(=O)O)cn3-c2ccc(F)cc2)C1 | 146 to 151 °C
47 | CCOC(=O)C1(C(=O)N(Cc2ccccc2)Cc2ccccc2)CC(=O)N(C(C)c2ccccc2)C1 (stereo not drawn) | 135 to 137 °C
48 | CCc1cc(C)cc(CC)c1C1C(=O)C2=CC(COCOC)CC2C1=O (stereo not drawn) | 155 to 156 °C
49 | O=C1[C@H]2CCCC[C@H]2C(=O)N1Cc1ccncc1 | 91 to 92 °C
50 | CN1C(=O)N(c2ccc(C(=O)O)cc2)S(=O)(=O)c2ccc(OCC3CCCCC3)cc21 | 240 to 241 °C
51 | CC(C)NCC(O)c1cnc(N)c(Cl)c1 (stereo not drawn) | 146 °C
52 | O=C(Cc1cccc2ccccc12)N[C@H]1C[C@H](C(=O)O)Nc2cc(Cl)cc(Cl)c21 (relative stereo) | 257 to 258 °C

Row | Compound | melting point
53 | COc1ccccc1C(c1ccnc2ccccc12)C(C#N)(Cc1cccnc1)C(=O)OC(C)(C)C (stereo not drawn) | 225 to 228 °C
54 | Cn1c(=O)nc(-c2ccccc2Cl)c2ccsc21 | 225 to 226 °C
55 | COc1cc(C(=O)O)c(Br)cc1C(=O)O | 275 °C
56 | CCN(CC)C(=S)SCc1ccccc1CSC(=S)N(CC)CC | 78 to 80 °C
57 | Cc1cccc(CCCCCCCCC(=O)O)c1 | 39 to 40 °C
58 | CCCC(=O)c1cnc2c(OC)csc2c1Nc1ccc(O)cc1C | 255 to 257 °C
59 | CCCCCCN(C)C(=O)c1cccc(CN2C(=O)C3(COc4cc5c(cc43)CCO5)c3ccccc32)c1 (stereo not drawn) | 73 to 74 °C
60 | O=C(Cl)N1CCOCC1 | 138 to 139 °C
61 | O=C(O)C(=O)NCCC(F)=C(F)F | 95 to 100 °C
62 | CC1CCC(=NNc2ccccc2)c2ncc(Br)c(=O)n21 (stereo not drawn) | 190 to 192 °C
63 | CS(=O)(=O)N1CN(C(=O)c2c(F)cccc2F)C(=O)N(c2ccc(Cl)cc2)C1 | 178 °C
64 | COc1ccc(S(=O)(=O)N=[N+]=[N-])cc1 | 48 to 50 °C
65 | O=C(CC1C2=C(CCCC2)C(=O)N1c1ccc(Cl)cc1)N1CCCCC1 (stereo not drawn) | 120 to 122 °C
66 | Nc1nc(Nc2ccc(S(N)(=O)=O)cc2)sc1C(=O)c1c(F)cccc1F | 258 to 260 °C
67 | Clc1ccc2oc(SCCN3CCC(OC(c4ccccc4)c4ccccc4)CC3)nc2c1 | 98 to 101 °C
68 | CCn1c(N)c(-c2nccn2COCC[Si](C)(C)C)c(=O)c2ccc(-c3ccc(CC(=O)O)cc3)nc21 | 220 °C
69 | O=c1c2c[nH]c3ccccc3c-2nn1-c1ccc(O)cc1 | 294 to 296 °C
70 | COc1cc(I)c(Oc2cnc(N)nc2N)cc1I | 136 to 138 °C
71 | Oc1nccc2cccnc12 | 236 to 239 °C
72 | COc1ccc(-n2cnc3ccc(-c4nnc(SCc5ccc(OC)c(C(F)(F)F)c5)o4)cc32)cc1 | 163 to 164 °C
73 | CCOC(=O)C(NC(=O)c1cnc2cccc(C)n2c1=O)C(C)C (stereo not drawn) | 136 °C
74 | CCCn1c(=O)c2[nH]c(/C=C/c3ccc(OC)c(OC)c3)nc2n(CCC)c1=O | 196 °C
75 | O=C1C(F)N(c2ccc(Oc3ccccc3)cc2)C(=S)N1c1ccccc1 (stereo not drawn) | 126 °C
76 | CC(C)(C)C1=CC(C=O)(C(C)(C)C)NN1 (stereo not drawn) | 216 to 219 °C
77 | CC1CCN(Cc2cccc(OCCCNc3nc(N)nn3C)c2)CC1 | 133 to 134 °C
78 | CCOC(=O)C(CCCCCCl)=NO | 36 to 38 °C

Row | Compound | melting point
79 | COc1cc2ncnc(Nc3ccc(F)c(Cl)c3)c2cc1OCCN1CC(=O)O[C@@H](C)C1 | 212 to 213 °C
80 | COCCOCOc1c(C(C)(C)C)cc(-c2nc(Br)no2)cc1C(C)(C)C | 89 to 91 °C
81 | CCCCCC(=O)NC[C@@H]1CN2C(=O)C[C@H]2O1 (racemic) | 56 to 57 °C
82 | CCS(=O)(=O)N(C(C)=O)c1cc(-n2nc3ccc(Cl)cn3c2=O)c(F)cc1C#N | 220 to 222 °C
83 | CC1(C)NCCc2c1oc1cc(S(=O)(=O)c3cccc(F)c3)ccc21 | 110 to 114 °C
84 | Cc1ccccc1CO[C@H]1COCO[C@H]1C (relative stereo) | 54 °C
85 | Cc1cc(C2=NNC(=O)CC2)c2c(c1)N(C)C(=O)CO2 | 266 to 270 °C
86 | CCCCCCCCC#CCC#CCC#CCCCC(=O)NCC(O)CO (stereo not drawn) | 87 °C
87 | COC(=O)c1ncccc1Br | 34 to 36 °C
88 | CCCC(=O)NCc1c(-c2ccc(C)cc2)nc2ccc3ccccc3n12 | 238 to 239 °C
89 | CN(C)Cc1cc2ccc(C(=O)NN)cc2n1S(C)(=O)=O | 170 to 173 °C
90 | COc1ccc2[nH]c3c(c2c1)CC(=O)Nc1cccnc1-3 | > 330 °C
91 | CNC(=O)c1nc(-c2cccnc2)nc2c1[nH]c(=O)n2-c1ccccc1 | > 330 °C
92 | Cc1ccnc(NC(=O)c2nc3ccccc3[nH]2)c1 | 262 °C
93 | COC(=O)COc1cccc(CNC(=O)C2Cc3ccccc3N2S(=O)(=O)c2ccc(-c3cccc(C(F)(F)F)c3)cc2)c1 (stereo not drawn) | 50 °C
94 | Cc1cccc(-c2nc3ccccn3c2-c2ccnc(-c3ccc(CN4CCOCC4)cc3)c2)n1 | 156 °C
95 | COc1ccc2c(c1)CCC1C2CCC2(C)C(O)CC(C)(C)C12 (stereo not drawn) | 87 to 91 °C
96 | C=CCSc1nc(-c2ccc(OC)cc2)c(-c2ccc(OC)cc2)s1 | 57 to 58 °C
97 | O=Cc1ccc(/C=C/c2ccncc2)nc1 | 131 to 136 °C
98 | CC(CNS(C)(=O)=O)n1nnc2cc3c(=O)n(C4CC4)nnc3cc2c1=O (stereo not drawn) | 195 to 197 °C
99 | CC(C)S(=O)c1ccc2[nH]nc(Nc3nccs3)c2c1 (stereo not drawn) | > 240 °C
100 | CNC(=O)N1CC(Oc2ccccn2)C1 | 165 to 168 °C
101 | CC1(C)OC(=O)Nc2ccc(-c3cc(F)cc(C(F)(F)F)c3)cc21 | 207 to 208 °C
102 | Cc1cccc(C(=O)NC(C)C)c1NC(=O)c1cc(C(F)(F)F)nn1-c1ncccc1C(F)(F)F | 227 to 230 °C
103 | COc1cccc2c(CBr)coc12 | 91 to 93.5 °C
